Test results: patent EP0454060B1, “3-(Mercaptoalkyl)-quinazoline-2,4(1H,3H)-diones, processes for their preparation, and pharmaceutical compositions” (priority 1990, dated 1991)

Test system: Kontaktüberempfindlichkeit vom verzögerten Typ (Effektor-T-Lymphozyten-Aktivität)
Test: Percutaneous test for contact hypersensitivity after DNFB immunisation
Format: in vivo, Meerschweinchen (Albino-Koloniezucht)
Details: Sensibilisierungsgrad versus control group; 2 mg/kg daily peroral, day +1 to +6; screening values; from 120 stimulatory, below 80 suppressive
Description: Der Nachweis einer immunregulatorischen Wirksamkeit wurde am Meerschweinchen (Albino-Koloniezucht) und u. a. mit Hilfe folgender Techniken geführt: • Perkutaner Test zum Nachweis einer Kontaktüberempfindlichkeit vom verzögerten Typ (Effektor-T-Lymphozyten-Aktivität), • Takatsy-Test zum Nachweis DNP-spezifischer Serumantikörper (humorale Immunantwort).
Der Nachweis der antiviralen Wirksamkeit erfolgte in vitro an Hühnerembryonalzellen mit Vertretern verschiedener Virusgruppen. 1. Untersuchungen zur immunregulatorischen Wirksamkeit 1.1 Perkutaner Test zum Nachweis einer Kontaktüberempfindlichkeit Die epikutane Applikation von Dinitrofluorbenzol (DNFB) führt beim Meerschweinchen und bei der Maus zur Entwicklung einer verzögerten Überempfindlichkeit, eines Immunstatus, der an die klonale Vermehrung TNP-spezifischer T-Lymphozyten (TDTH-Ly) gebunden ist. Erfolgt nach einer Latenzperiode von mindestens 5 Tagen eine erneute DNFB-Applikation, kommt es zu einer Freisetzung von Lymphokinen durch Reaktion mit den TDTH-Ly dieses Hautbereiches und dadurch zu einer lokal begrenzten Entzündungsreaktion. Sieben Tage nach der Immunisierung mit 1 %igem DNFB wurden die Flanken der Versuchstiere enthaart und durch Aufbringen je eines Tropfens 0,5 %, 0,1 %, 0,05 %, 0,025 % und 0,01 %iger DNFB-Lösung getestet. Die noch positive Konzentration ist dem Grad der Sensibilisierung umgekehrt proportional. Die Testergebnisse ergeben sich aus Stärke und Anzahl der positiven Hautreaktionen, der Stimulierungsindex (SI) aus dem Vergleich der Test- und Kontrolltiere. Die Substanzbehandlung erfolgte peroral. Mittels Schlundsonde wurde eine tägliche Dosis von 2 mg/kg Körpermasse als Suspension in Wasser gegeben. Behandlungsdauer: 1 Tag + 1 (ein Tag nach der Immunisierung) bis +6. Die Kontrolltiere erhielten nur die eingesetzte Lactose. 1.2 Takatsy-Test Nach Immunisierung mit Dinitrofluorbenzol (DNFB) kommt es beim Meerschweinchen auch zur Bildung DNP-spezifischer humoraler Antikörper, die bevorzugt der IgG1-Substanzklasse angehören. 14 Tage nach primärer epikutaner Applikation von DNFB wurde den Versuchstieren Blut durch Herzpunktion entnommen. Die Bestimmung der Antikörperkonzentration erfolgte nach einer von Takatsy beschriebenen Methode (Takatsy, G.: A new method for the preparation of serial dilutions in a quick and accurate way. Kiserletes Orvostudomany 2 (1950) 263 - 396). Als Indikatorzellen wurden TNP-beladene Schaferythrozyten verwendet (Kopplung nach Rittenberg und Pratt; Rittenberg, M. B. and Pratt, K. L.: Antitrinitrophenyl (TNP) plaque assay. Primary response of BALB/c mice to soluble and particulate immunogen. Proc. Soc. exp. Biol. Med., 132 (1969) 575 - 579). 1.3 Ergebnisse Sensibilisierungsgrad (%) und Serumantikörperkonzentration (AK-Titer-Differenz) gegenüber der jeweiligen Kontrollgruppe (Screening-Werte)
Aus den Werten wird deutlich, daß die Verbindungen der allgemeinen Formel I einen gut nachweisbaren Effekt auf die Effektor-T-Lymphozyten-abhängige verzögerte Uberempfindlichkeit haben. Kontaktdermatitis-Werte ab 120 (≙ 20 % Steigerung gegenüber der Kontrolle) bzw. unter 80 werden als Nachweis eines stimulatorischen bzw. suppressorischen Effektes angesehen. Antikörpertiter-Differenzen von >+1 bzw. <-1 verdeutlichen den stimulatorischen bzw. suppressorischen Effekt der Substanzen auf die humorale Immunantwort. 2. Untersuchungen zur immunstimulierenden Wirkung • 2.1 Plaque-Test zum Nachweis von SE-spezifischen IgM- und IgG-PBZ Zur Prüfung immunstimulierender Effekte wurde u. a. auch der Einfluß von Verbindungen der allgemeinen Formel I auf die humorale Immunantwort an Mäusen des Inzuchtstammes CBA und mittels Hämolyse-Plaque-Test (HPT) untersucht. Diese Technik erlaubt die quantitative und getrennte Erfassung IgM- und IgG-Antikörper produzierender Zellen (= Plaque bildende Zellen; PBZ). […]

## COc1cc2[nH]c(=O)n(CCCS)c(=O)c2cc1OC [Beispiel 2, 3-(3-Mercaptoprop-1-yl)-6,7-dimethoxychinazolin-2,4(1H,3H)-dion]
  Kontaktdermatitis (Kontrolle: 100) 24-Stunden-Reaktion: 180%
